SMILES strings stand for the structures.

This passage reports Kd results from paper PMC8262883, “Human Gut Faecalibacterium prausnitzii Deploys a Highly Efficient Conserved System To Cross-Feed on β-Mannan-Derived Oligosaccharides” (mBio, 2021).

The test has as its target T1, FpMOBP (Faecalibacterium prausnitzii, UniProt D4KAW3).
T1 construct: gene FPR_17280; mature form without predicted signal peptide, C-terminal His6 tag (pNIC-CH), E. coli BL21 STAR; 48 kDa
T1 sequence (D4KAW3 26-470): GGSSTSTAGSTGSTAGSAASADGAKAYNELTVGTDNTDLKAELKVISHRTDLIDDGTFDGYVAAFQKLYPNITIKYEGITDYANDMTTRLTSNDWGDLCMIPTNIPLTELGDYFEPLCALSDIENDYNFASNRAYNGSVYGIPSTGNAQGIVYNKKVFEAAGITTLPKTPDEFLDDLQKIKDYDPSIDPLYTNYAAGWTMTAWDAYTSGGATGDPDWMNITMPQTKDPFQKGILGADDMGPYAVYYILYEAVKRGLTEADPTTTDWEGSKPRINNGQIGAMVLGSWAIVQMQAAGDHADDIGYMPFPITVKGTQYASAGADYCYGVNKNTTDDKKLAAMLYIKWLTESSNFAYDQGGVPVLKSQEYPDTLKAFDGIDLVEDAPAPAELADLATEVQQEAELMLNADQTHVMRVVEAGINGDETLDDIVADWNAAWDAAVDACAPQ
Nature of the test: isothermal titration calorimetry. It counts as binding. The conditions noted are these: 25°C, 50 mM sodium phosphate pH 6.5; n = 0.8.

For `OC[C@H]1O[C@@H](O[C@H]2[C@H](O)[C@H](O)[C@H](O[C@H]3[C@H](O)[C@H](O)[C@H](O[C@H]4[C@H](O)[C@H](O)[C@H](O[C@H]5[C@H](O)[C@H](O)[C@H](O[C@H]6[C@H](O)[C@H](O)C(O)O[C@@H]6CO)O[C@@H]5CO)O[C@@H]4CO)O[C@@H]3CO)O[C@@H]2CO)[C@@H](O)[C@@H](O)[C@@H]1O` (stereo partly shown) [M6, mannohexaose], the Kd is 189 ± 1.4 µM.
